Reference: patent publication US8211935B2, “Heterocyclic derivatives for modulation of calcium channels” (Vertex Pharmaceuticals Incorporated, priority 2004, dated 2012)
Read-outs that look alike come from different tables or passages of the source.

Biological target: T1, CaV2.2 (Homo sapiens, UniProt Q00975)
T1 construct: expressed in transfected cells; host or cells: HEK293
Test: VIPR optical membrane potential assay with electrical stimulation
Type: cell-based
Summary of the method: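 HEK293 cells stably expressing CaV2.2, stained with CC2-DMPE (10 μM final) and oxonol voltage-sensitive dyes, compound added with BaCl2. Membrane potential response evoked by 3-5 s electrical stimulation. Read as background-subtracted 460/580 nm emission ratio, response R=Rf/Ri, normalized to mibefradil positive and no-drug negative controls.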

[1] = Table 3, biological assay data, read-out: IC50

T1 sequence (Q00975 whole entry): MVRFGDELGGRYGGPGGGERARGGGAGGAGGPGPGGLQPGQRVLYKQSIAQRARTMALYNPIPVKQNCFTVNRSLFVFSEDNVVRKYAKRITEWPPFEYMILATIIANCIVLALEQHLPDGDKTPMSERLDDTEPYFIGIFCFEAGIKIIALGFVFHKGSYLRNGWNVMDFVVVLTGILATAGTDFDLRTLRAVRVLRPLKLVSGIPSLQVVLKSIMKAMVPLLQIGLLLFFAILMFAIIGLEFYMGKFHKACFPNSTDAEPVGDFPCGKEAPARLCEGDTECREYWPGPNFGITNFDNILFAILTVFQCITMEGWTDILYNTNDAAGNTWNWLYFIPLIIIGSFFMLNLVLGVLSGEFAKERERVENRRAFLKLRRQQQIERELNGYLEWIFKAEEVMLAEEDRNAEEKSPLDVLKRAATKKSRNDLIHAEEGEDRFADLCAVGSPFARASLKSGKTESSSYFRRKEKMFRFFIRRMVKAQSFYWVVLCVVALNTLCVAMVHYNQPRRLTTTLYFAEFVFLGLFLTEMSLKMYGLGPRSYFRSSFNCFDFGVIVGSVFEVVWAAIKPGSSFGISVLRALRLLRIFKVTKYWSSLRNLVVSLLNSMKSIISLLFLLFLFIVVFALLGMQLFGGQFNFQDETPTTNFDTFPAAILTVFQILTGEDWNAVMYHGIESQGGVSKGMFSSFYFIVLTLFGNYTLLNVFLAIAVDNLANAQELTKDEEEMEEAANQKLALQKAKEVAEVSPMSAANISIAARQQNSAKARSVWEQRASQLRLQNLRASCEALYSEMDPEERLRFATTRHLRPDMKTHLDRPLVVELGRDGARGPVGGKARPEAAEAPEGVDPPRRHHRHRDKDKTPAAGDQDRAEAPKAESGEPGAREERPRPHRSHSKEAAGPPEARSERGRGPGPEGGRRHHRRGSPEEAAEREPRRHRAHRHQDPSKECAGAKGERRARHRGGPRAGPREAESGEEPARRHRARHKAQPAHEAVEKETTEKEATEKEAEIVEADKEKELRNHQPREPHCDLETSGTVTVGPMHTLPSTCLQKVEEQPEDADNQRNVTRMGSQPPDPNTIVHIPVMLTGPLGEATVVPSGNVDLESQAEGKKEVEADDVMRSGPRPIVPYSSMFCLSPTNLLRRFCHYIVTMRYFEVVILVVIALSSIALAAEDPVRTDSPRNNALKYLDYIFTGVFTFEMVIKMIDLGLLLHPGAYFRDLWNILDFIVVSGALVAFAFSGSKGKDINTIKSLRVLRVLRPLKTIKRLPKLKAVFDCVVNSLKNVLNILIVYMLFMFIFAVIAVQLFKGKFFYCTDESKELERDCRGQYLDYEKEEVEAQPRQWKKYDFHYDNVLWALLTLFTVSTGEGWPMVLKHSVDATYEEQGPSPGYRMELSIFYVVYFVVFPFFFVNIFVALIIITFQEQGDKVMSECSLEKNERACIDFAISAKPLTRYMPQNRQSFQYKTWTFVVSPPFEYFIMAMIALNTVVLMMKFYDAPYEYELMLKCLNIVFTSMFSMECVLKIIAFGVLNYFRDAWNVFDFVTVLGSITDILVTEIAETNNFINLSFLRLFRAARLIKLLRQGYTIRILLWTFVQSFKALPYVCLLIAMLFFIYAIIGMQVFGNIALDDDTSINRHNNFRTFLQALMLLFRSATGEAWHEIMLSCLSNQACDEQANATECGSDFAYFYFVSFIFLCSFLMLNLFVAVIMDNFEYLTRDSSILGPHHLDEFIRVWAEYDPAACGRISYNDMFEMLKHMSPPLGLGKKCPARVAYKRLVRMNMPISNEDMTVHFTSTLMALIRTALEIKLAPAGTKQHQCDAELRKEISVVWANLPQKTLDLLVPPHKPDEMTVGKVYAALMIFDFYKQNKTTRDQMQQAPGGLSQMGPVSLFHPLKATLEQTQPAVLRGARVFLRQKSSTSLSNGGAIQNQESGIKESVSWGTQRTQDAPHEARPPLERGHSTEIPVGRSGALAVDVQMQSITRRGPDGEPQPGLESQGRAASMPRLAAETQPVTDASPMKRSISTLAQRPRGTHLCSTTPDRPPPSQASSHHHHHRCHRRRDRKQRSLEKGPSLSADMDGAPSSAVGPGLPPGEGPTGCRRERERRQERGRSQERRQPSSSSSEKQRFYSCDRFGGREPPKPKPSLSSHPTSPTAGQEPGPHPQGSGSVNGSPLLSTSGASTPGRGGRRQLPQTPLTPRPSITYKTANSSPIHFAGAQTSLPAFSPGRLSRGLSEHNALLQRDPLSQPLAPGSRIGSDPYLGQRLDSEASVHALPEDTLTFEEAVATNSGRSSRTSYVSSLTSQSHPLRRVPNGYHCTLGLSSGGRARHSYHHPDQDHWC
T1 sequence (P54284 whole entry partner): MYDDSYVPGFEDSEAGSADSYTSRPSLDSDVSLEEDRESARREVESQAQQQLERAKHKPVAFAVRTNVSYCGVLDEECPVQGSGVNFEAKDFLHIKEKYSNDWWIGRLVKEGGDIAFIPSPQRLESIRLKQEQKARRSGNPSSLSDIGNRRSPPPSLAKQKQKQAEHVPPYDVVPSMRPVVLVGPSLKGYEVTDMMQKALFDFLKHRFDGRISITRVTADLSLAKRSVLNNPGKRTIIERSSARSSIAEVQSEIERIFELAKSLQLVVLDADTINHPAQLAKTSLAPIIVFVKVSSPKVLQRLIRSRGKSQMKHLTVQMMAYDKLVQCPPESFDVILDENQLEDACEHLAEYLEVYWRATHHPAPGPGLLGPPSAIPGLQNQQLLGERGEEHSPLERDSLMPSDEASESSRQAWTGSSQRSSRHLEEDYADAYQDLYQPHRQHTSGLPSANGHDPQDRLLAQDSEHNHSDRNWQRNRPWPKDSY
T1 sequence (P54289 25-946 partner limits assumed): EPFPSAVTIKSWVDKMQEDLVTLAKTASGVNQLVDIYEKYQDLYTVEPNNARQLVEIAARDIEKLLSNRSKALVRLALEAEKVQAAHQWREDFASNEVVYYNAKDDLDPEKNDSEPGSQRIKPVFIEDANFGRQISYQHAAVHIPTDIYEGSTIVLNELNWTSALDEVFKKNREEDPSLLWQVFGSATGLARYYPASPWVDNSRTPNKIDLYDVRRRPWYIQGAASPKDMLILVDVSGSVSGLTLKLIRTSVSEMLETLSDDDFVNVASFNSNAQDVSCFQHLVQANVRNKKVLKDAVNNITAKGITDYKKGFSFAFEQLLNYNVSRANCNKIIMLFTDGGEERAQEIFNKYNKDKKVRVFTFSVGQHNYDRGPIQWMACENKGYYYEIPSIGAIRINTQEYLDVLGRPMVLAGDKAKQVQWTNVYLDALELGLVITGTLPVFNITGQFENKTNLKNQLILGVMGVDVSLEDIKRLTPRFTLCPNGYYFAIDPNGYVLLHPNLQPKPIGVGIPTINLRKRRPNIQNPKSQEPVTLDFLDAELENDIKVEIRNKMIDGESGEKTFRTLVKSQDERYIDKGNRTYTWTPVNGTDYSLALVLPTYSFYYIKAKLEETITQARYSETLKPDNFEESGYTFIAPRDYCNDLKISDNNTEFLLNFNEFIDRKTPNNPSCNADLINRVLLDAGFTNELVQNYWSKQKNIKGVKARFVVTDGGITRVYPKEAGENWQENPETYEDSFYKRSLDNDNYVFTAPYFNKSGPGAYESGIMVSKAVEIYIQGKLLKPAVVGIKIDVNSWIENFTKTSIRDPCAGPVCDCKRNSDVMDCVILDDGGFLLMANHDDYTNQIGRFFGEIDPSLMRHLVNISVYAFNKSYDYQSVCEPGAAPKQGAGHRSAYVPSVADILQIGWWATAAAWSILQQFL
T1 sequence (P54289 947-1103 partner limits assumed): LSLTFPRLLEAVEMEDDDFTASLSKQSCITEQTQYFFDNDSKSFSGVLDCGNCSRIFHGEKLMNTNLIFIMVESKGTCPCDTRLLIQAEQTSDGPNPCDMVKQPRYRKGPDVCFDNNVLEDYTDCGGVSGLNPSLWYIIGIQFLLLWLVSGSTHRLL

Structure (SMILES)	IC50 [1] [µM]	IC50 [µM]
Cc1c(C(=O)NC(C)C)oc2ccc(S(=O)(=O)N3CCC(F)CC3)cc12 [compound 157]	5 to 20	
CCOC(=O)N1CCN(C(=O)c2cc3cc(S(=O)(=O)N4CCC(C)CC4)ccc3o2)CC1 [compound 158]	< 20	
Cc1c(C(=O)N(C(C)C)C(C)C)oc2ccc(S(=O)(=O)N3CCCCCC3)cc12 [compound 159]	5 to 20	
Cc1c(C(=O)N2CCN(C)CC2)[nH]c2ccc(S(=O)(=O)N3CC(C)CC(C)C3)cc12 (stereo not shown) [compound 160]	5 to 20	
Cc1c(C(=O)N2CCC3(CC2)OCCO3)oc2ccc(S(=O)(=O)N3CCCCCC3)cc12 [compound 161]		5 to 20
CCN(CC)C(=O)c1oc2ccc(S(=O)(=O)N3CCOCC3)cc2c1C [compound 162]	< 20	
Cc1c(C(=O)N2CCC(C)CC2)oc2ccc(S(=O)(=O)N3CCOCC3)cc12 [compound 163]	< 20	
CCN(CC)S(=O)(=O)c1ccc2oc(C(=O)N3CC(C)CC(C)C3)c(C)c2c1 (stereo not shown) [compound 164]	< 5	
CN1CCN(C(=O)c2cc3cc(S(=O)(=O)N4CCCCCC4)ccc3o2)CC1 [compound 165]	5 to 20	
Cc1c(C(=O)NCC2CCOCC2)[nH]c2ccc(S(=O)(=O)N3CCC(C)CC3)cc12 [compound 166]	< 20	
COc1ccccc1CNC(=O)c1oc2ccc(S(=O)(=O)N3CCOCC3)cc2c1C [compound 167]	< 20	
CCN(CC)C(=O)c1[nH]c2ccc(S(=O)(=O)N3CCC(C)CC3)cc2c1C [compound 168]	5 to 20	
O=C(c1cc2cc(S(=O)(=O)N3CCCCCC3)ccc2o1)N1CCCCCC1 [compound 169]	< 5	
CC1CCCN(C(=O)c2cc3cc(S(=O)(=O)N4CCCCCC4)ccc3o2)C1 (stereo not shown) [compound 170]	< 5	
CC1CCCN(C(=O)c2cc3cc(S(=O)(=O)N4CC(C)CC(C)C4)ccc3[nH]2)C1 (stereo not shown) [compound 171]	< 5	
Cc1c(C(=O)N2CCC3(CC2)OCCO3)oc2ccc(S(=O)(=O)N3CCCCC3)cc12 [compound 173]		5 to 20
Cc1c(C(=O)NC2CCCC2)n(C)c2ccc(S(=O)(=O)N3CCC(C)CC3)cc12 [compound 174]	< 5	
CCOC(=O)C1CCN(C(=O)c2oc3ccc(S(=O)(=O)N4CCC(C)CC4)cc3c2C)CC1 [compound 176]	< 5	
Cc1c(C(=O)NC2CCCC2)oc2ccc(S(=O)(=O)N3CCCC(C)C3)cc12 (stereo not shown) [compound 177]	< 5	
Cc1c(C(=O)N2CCCC2)oc2ccc(S(=O)(=O)N3CCCC(C)C3)cc12 (stereo not shown) [compound 178]	5 to 20	
CCN(CC)S(=O)(=O)c1ccc2oc(C(=O)NCC3CCCO3)c(C)c2c1 (stereo not shown) [compound 179]	< 20	
Cc1c(C(=O)NCCCN2CCCC2)oc2ccc(S(=O)(=O)N3CC(C)CC(C)C3)cc12 (stereo not shown) [compound 180]	< 5	
CCCN(c1ccc2[nH]c(C(=O)NC3CC3)cc2c1)S(=O)(=O)c1ccccc1 [compound 181]	5 to 20	
Cc1c(C(=O)NC2CC2)oc2ccc(S(=O)(=O)NCc3ccc(F)cc3)cc12 [compound 182]	< 20	
O=C(c1cc2cc(S(=O)(=O)N3CCCCCC3)ccc2o1)N1CCC2(CC1)OCCO2 [compound 183]		5 to 20
CC1CC(C)CN(S(=O)(=O)c2ccc3oc(C(=O)N4CCCC4)cc3c2)C1 (stereo not shown) [compound 184]	< 5	
CC1CC(C)CN(S(=O)(=O)c2ccc3[nH]c(C(=O)N(C)Cc4ccccc4)cc3c2)C1 (stereo not shown) [compound 185]	< 5	

Structure (SMILES)	IC50 [1] [µM]	IC50 [µM]
CCN(CC)C(=O)c1oc2ccc(S(=O)(=O)N(CC)CC)cc2c1C [compound 186]	< 20	
Cc1c(C(=O)NC2CCCC(C)C2C)oc2ccc(S(=O)(=O)N3CCOCC3)cc12 (stereo not shown) [compound 187]	5 to 20	
CC1CCN(S(=O)(=O)c2ccc3oc(C(=O)N4CCN(C)CC4)cc3c2)CC1 [compound 188]	5 to 20	
Cc1c(C(=O)NCc2ccccc2)oc2ccc(S(=O)(=O)N3CCC(C)CC3)cc12 [compound 189]	5 to 20	
CC1CCN(C(=O)c2cc3cc(S(=O)(=O)N4CCCCCC4)ccc3o2)CC1 [compound 190]	< 5	
CCN(CC)C(=O)c1cc2cc(S(=O)(=O)N3CC(C)CC(C)C3)ccc2n1CC(O)CN1CCN(C)CC1 (stereo not shown) [compound 191]	< 5	
CNC(=O)c1cc2cc(S(=O)(=O)N3CCC(C)CC3)ccc2[nH]1 [compound 192]	< 5	
Cc1c(C(=O)N2CCN(C)CC2)oc2ccc(S(=O)(=O)N3CC(C)CC(C)C3)cc12 (stereo not shown) [compound 193]	5 to 20	
CC1CCN(C(=O)c2cc3cc(S(=O)(=O)N4CC(C)CC(C)C4)ccc3[nH]2)CC1 (stereo not shown) [compound 194]	< 5	
Cc1c(C(=O)N2CCCC(C)C2)oc2ccc(S(=O)(=O)N3CCOCC3)cc12 (stereo not shown) [compound 195]	< 20	
CCN(CC)C(=O)c1cc2cc(S(=O)(=O)N3CC(C)CC(C)C3)ccc2[nH]1 (stereo not shown) [compound 196]	< 5	
Cc1c(C(=O)NCCC2=CCCCC2)oc2ccc(S(=O)(=O)N3CCOCC3)cc12 [compound 197]	< 20	
CCOC(=O)N1CCN(C(=O)c2[nH]c3ccc(S(=O)(=O)N4CCC(C)CC4)cc3c2C)CC1 [compound 198]	5 to 20	
CCN(CC)C(=O)c1oc2ccc(S(=O)(=O)N3CCCC(C)C3)cc2c1C (stereo not shown) [compound 199]	< 5	
Cc1c(C(=O)NCC2COc3ccccc3O2)oc2ccc(S(=O)(=O)N(C)C3CCCCC3)cc12 (stereo not shown) [compound 200]	5 to 20	
Cc1c(C(=O)NCCc2ccccc2)oc2ccc(S(=O)(=O)N3CCCCCC3)cc12 [compound 201]	< 5	
CCN(CC)C(=O)c1oc2ccc(S(=O)(=O)N3CCCCC3)cc2c1C [compound 202]	5 to 20	
Cc1c(C(=O)NCc2ccccn2)oc2ccc(S(=O)(=O)N3CCC(C)CC3)cc12 [compound 203]	5 to 20	
Cc1c(C(=O)NC(C)C)oc2ccc(S(=O)(=O)N3CCC(F)(F)CC3)cc12 [compound 204]	5 to 20	
Cc1c(C(=O)NCC2CCCO2)oc2ccc(S(=O)(=O)N3CCCC(C)C3)cc12 (stereo not shown) [compound 205]	5 to 20	
Cc1c(C(=O)N(C)Cc2ccccc2)[nH]c2ccc(S(=O)(=O)N3CCC(C)CC3)cc12 [compound 206]	< 5	
Cc1c(C(=O)NC2CC2)oc2ccc(S(=O)(=O)Nc3ccncc3)cc12 [compound 207]	< 20	
CC1CCN(S(=O)(=O)c2ccc3oc(C(=O)N4CCCCC4C)cc3c2)CC1 (stereo not shown) [compound 208]	< 5	
CC1CC(C)CN(S(=O)(=O)c2ccc3[nH]c(C(=O)NC4CC4)cc3c2)C1 (stereo not shown) [compound 209]	< 5	
Cc1c(C(=O)NC2CC2)oc2ccc(S(=O)(=O)N3CCCC3)cc12 [compound 210]	< 20	
CCOC(=O)N1CCN(C(=O)c2oc3ccc(S(=O)(=O)N4CCCCCC4)cc3c2C)CC1 [compound 211]	< 5	
CCNC(=O)c1oc2ccc(S(=O)(=O)N3CC(C)CC(C)C3)cc2c1C (stereo not shown) [compound 212]	< 5	

Structure (SMILES)	IC50 [1] [µM]	IC50 [µM]
Cc1c(C(=O)N(C)Cc2ccccc2)oc2ccc(S(=O)(=O)N3CCCC(C)C3)cc12 (stereo not shown) [compound 213]	< 5	
CNC(=O)c1oc2ccc(S(=O)(=O)N3CC(C)CC(C)C3)cc2c1C (stereo not shown) [compound 214]	< 5	
CCN(CC)S(=O)(=O)c1ccc2oc(C(=O)NC3CCC(C)CC3)c(C)c2c1 (stereo not shown) [compound 215]	5 to 20	
CNC(=O)c1[nH]c2ccc(S(=O)(=O)N3CC(C)CC(C)C3)cc2c1C (stereo not shown) [compound 216]	< 5	
CC1CC(C)CN(S(=O)(=O)c2ccc3[nH]c(C(=O)N(C(C)C)C(C)C)cc3c2)C1 (stereo not shown) [compound 217]	< 5	
CC(C)NC(=O)c1cc2cc(S(=O)(=O)N3CCCCCC3)ccc2o1 [compound 218]	5 to 20	
CC1CCN(S(=O)(=O)c2ccc3oc(C(=O)NC4CCCCC4)cc3c2)CC1 [compound 219]	5 to 20	
CN1CCN(C(=O)c2cc3cc(S(=O)(=O)N4CCCCCC4)ccc3[nH]2)CC1 [compound 220]	5 to 20	
CCNC(=O)c1[nH]c2ccc(S(=O)(=O)N3CC(C)CC(C)C3)cc2c1C (stereo not shown) [compound 221]	5 to 20	
O=C(c1cc2cc(S(=O)(=O)N3CCCCCC3)ccc2o1)N1CCCC1 [compound 222]	5 to 20	
Cc1c(C(=O)NCCCc2ccccc2)[nH]c2ccc(S(=O)(=O)N3CCC(C)CC3)cc12 [compound 223]	< 5	
Cc1c(C(=O)NC2CC2)oc2ccc(S(=O)(=O)Nc3ccccc3)cc12 [compound 224]	5 to 20	
CC1CC(C)CN(S(=O)(=O)c2ccc3oc(C(=O)NCCC4CCOCC4)cc3c2)C1 (stereo not shown) [compound 225]	< 5	
CC1CC(C)CN(C(=O)c2cc3cc(S(=O)(=O)N4CCCCCC4)ccc3o2)C1 (stereo not shown) [compound 226]	< 5	
Cc1c(C(=O)N2CCCC(C)C2)[nH]c2ccc(S(=O)(=O)N3CC(C)CC(C)C3)cc12 (stereo not shown) [compound 227]	< 5	
Cc1c(C(=O)NC2CC2)oc2ccc(S(=O)(=O)Nc3ccc(F)cc3)cc12 [compound 228]	< 20	
CCCCN(C)C(=O)c1cc2cc(S(=O)(=O)N3CC(C)CC(C)C3)ccc2o1 (stereo not shown) [compound 229]	< 5	
CCN(CC)C(=O)c1cc2cc(S(=O)(=O)N3CC(C)CC(C)C3)ccc2n1CCCN(C)C (stereo not shown) [compound 230]	5 to 20	
CC1CCN(S(=O)(=O)c2ccc3oc(C(=O)N4CCCC4)cc3c2)CC1 [compound 231]	5 to 20	
Cc1c(C(=O)N2CCC3(CC2)OCCO3)[nH]c2ccc(S(=O)(=O)N3CCCCCC3)cc12 [compound 232]		5 to 20
Cc1c(C(=O)N2CC(C)CC(C)C2)oc2ccc(S(=O)(=O)N3CCCC(C)C3)cc12 (stereo not shown) [compound 233]	< 5	
CC1CCN(S(=O)(=O)c2ccc3oc(C(=O)NC(C)C)cc3c2)CC1 [compound 234]	< 5	
CCOC(=O)N1CCN(C(=O)c2[nH]c3ccc(S(=O)(=O)N4CCCCCC4)cc3c2C)CC1 [compound 235]	5 to 20	
Cc1c(C(=O)N2CCSCC2)oc2ccc(S(=O)(=O)N3CCC(C)CC3)cc12 [compound 236]	5 to 20	
Cc1c(C(=O)NC2CC2)oc2ccc(S(=O)(=O)NCc3ccccc3)cc12 [compound 237]	< 20	
